US20100056524A1, “Compound” (priority 2008, published 2010)
Structures can show the parent of a compound that is named as a salt. Where two headings read alike, the source gives them in different places.

Experiments:
Assay type in all cases: biochemical
MARK3 = biological target: T1, MARK3 (Homo sapiens, UniProt P27448); assay: MARK3 protein kinase assay; conditions: for remaining activity at 1 µM: 1 μM compound; for remaining activity at 10 µM: 10 μM compound; for residual kinase activity MARK3: 1 μm compound
T1 construct: All protein kinases were of human origin and encoded full length proteins, unless indicated otherwise; His6; made in house; host or cells: Sf21 insect cells
T1 sequence (P27448 whole entry): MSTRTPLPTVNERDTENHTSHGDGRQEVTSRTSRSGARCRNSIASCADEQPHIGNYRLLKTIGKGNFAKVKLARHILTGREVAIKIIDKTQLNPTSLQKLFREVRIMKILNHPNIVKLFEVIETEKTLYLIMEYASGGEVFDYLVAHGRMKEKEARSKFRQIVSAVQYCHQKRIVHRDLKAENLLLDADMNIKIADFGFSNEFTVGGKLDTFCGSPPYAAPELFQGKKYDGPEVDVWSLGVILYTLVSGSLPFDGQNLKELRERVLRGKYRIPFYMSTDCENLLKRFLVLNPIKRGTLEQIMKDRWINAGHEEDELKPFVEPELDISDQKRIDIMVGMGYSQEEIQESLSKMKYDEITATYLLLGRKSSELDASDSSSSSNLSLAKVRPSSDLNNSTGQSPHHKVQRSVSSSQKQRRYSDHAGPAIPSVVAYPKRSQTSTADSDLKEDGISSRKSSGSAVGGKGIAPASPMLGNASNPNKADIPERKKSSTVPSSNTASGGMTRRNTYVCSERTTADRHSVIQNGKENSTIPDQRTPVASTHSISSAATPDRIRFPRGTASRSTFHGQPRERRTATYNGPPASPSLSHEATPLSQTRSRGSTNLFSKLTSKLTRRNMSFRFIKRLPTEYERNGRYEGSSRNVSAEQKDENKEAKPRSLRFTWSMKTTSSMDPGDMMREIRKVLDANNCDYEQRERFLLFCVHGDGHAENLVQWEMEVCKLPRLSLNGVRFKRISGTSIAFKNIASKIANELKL
Excerpt: (§1) All protein kinases were of human origin and encoded full length proteins, unless indicated otherwise. They were either expressed as glutathione S-transferase (GST) fusion proteins in Escherichia Coli or as hexahistidine (His6)-tagged proteins in insect Sf21 cells. GST fusion proteins were purified by affinity chromatography on glutathione-Sepharose, and His6-tagged proteins on nickel/nitriloacetate-agarose. The procedures for expressing some of the protein kinases used herein have been detailed previously.^8,9 The following sections outline the DNA vectors synthesised and the procedures used to express and purifying protein kinases that have not been reported previously.
The following kinases were expressed in Sf21 cells: Aurora B and Aurora C, extra-cellular signal-regulated kinase 8 (ERK8), microtubule affinity regulating kinase 3 (MARK3), protein kinase Bα[118-480][S473D], protein kinase Bβ (PKBβ[120-481][S474D], 3-phosphoinositide-dependent protein kinase-1 [52-556]
(§2) All assays (25.5 μl) were carried out at room temperature (21° C.) and were linear with respect to time and enzyme concentration under the conditions used. Assays were performed for 30 min using Multidrop Micro reagent dispensers (Thermo Electron Corporation, Waltham, Mass. 02454, USA) in a 96-well format. The concentration of magnesium acetate in the assays was 10 mM and the [γ-33P] ATP (800 cpm/pmol) was used at 5, 20 or 50 μM as indicated, in order to be at or below the Km for ATP for each enzyme. Protein kinases assayed at 5 μM ATP were: —ERK1, ERK8, PKBα, MARK3, Aurora C. Protein kinases assayed at 20 μM ATP were: —JNK1, PDK1, CHK1, CHK2, CDK2 and Aurora B. Protein kinases assayed at 50 μM ATP were: —MNK2, IKKepsilon and TBK1.
(§3) The assays were initiated with MgATP, stopped by addition of 5 μl of 0.5 M orthophosphoric acid and spotted on to P81 filterplates using a unifilter harvester (PerkinElmer, Boston, Mass. 02118, USA). The IC50 values of inhibitors were determined after carrying out assays at 10 different concentrations of each compound.
ERK1 and ERK8 were both assayed against myelin basic protein (MBP, 0.33 mg/ml). MARK3 was assayed against the peptide […] (300 μM), MNK2 against the eIF4E protein (0.5 mg/ml). PKBβ was assayed against the peptide […] (30 μM). TBK1 were assayed against ([…]) (300 μM). The substrates used for other protein kinases were described previously.^8,9
(§4) Unless stated otherwise, enzymes were diluted in 50 mM Tris/HCl pH 7.5, 0.1 mM EGTA, 1 mg/ml BSA, 0.1% (v/v) 2-mercaptoethanol and assayed in 50 mM Tris/HCl pH 7.5, 0.1 mM EGTA, 0.1% (v/v) 2-mercaptoethanol.

CHK1 = biological target: T2, CHK1 (Homo sapiens, UniProt O14757); assay: CHK1 protein kinase assay; conditions: for remaining activity at 1 µM: 1 μM compound; for remaining activity at 10 µM: 10 μM compound; for residual kinase activity CHK1: 1 μm compound
T2 construct: All protein kinases were of human origin and encoded full length proteins, unless indicated otherwise; made in house
T2 sequence (O14757 1-476): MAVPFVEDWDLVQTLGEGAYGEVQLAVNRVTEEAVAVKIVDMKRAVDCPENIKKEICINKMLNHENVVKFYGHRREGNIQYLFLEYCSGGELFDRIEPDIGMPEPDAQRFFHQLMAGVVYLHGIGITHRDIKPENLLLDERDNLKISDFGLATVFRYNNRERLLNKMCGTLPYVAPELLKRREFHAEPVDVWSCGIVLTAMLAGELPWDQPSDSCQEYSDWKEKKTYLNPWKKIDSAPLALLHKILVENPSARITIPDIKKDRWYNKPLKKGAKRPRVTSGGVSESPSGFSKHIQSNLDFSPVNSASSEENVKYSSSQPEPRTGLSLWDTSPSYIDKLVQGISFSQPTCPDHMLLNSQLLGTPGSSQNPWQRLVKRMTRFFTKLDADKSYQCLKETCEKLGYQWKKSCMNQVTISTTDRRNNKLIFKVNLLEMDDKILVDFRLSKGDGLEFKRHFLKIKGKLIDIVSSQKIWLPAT
Excerpt: as §1, §2, §3, §4

MSK1 = biological target: T3, MSK1 (Homo sapiens, UniProt O75582); assay: MSK1 protein kinase assay; conditions: for remaining activity at 1 µM: 1 μM compound; for remaining activity at 10 µM: 10 μM compound; for residual kinase activity MSK1: 1 μm compound
T3 construct: All protein kinases were of human origin and encoded full length proteins, unless indicated otherwise; made in house
T3 sequence (O75582 whole entry): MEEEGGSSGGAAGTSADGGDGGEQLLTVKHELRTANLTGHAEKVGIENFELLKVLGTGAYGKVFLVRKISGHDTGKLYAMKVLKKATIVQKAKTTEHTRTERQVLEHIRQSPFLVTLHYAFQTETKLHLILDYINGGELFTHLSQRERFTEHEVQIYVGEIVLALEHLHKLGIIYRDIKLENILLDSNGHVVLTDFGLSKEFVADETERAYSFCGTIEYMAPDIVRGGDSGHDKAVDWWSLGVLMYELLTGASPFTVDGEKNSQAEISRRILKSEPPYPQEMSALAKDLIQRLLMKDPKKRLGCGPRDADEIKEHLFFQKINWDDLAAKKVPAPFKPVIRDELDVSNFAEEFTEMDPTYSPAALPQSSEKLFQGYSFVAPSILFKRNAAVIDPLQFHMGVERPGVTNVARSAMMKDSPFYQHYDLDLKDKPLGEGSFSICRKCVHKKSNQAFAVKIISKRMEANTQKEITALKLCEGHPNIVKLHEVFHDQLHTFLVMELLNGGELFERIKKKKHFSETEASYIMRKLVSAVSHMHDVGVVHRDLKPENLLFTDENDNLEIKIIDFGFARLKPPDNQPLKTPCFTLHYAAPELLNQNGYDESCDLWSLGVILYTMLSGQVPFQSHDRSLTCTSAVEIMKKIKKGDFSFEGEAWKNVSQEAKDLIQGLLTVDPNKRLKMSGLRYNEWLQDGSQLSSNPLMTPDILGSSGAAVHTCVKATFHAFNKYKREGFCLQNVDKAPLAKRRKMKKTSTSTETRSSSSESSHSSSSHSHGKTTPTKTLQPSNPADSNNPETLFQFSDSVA
Excerpt: as §1, §2, §3, §4

PKD1 = biological target: T4, PKD1 (Homo sapiens, UniProt Q15139); assay: PKD1 protein kinase assay; conditions: for remaining activity at 1 µM: 1 μM compound; for remaining activity at 10 µM: 10 μM compound; for residual kinase activity PKD1: 1 μm compound
T4 construct: All protein kinases were of human origin and encoded full length proteins, unless indicated otherwise; made in house
T4 sequence (Q15139 1-912): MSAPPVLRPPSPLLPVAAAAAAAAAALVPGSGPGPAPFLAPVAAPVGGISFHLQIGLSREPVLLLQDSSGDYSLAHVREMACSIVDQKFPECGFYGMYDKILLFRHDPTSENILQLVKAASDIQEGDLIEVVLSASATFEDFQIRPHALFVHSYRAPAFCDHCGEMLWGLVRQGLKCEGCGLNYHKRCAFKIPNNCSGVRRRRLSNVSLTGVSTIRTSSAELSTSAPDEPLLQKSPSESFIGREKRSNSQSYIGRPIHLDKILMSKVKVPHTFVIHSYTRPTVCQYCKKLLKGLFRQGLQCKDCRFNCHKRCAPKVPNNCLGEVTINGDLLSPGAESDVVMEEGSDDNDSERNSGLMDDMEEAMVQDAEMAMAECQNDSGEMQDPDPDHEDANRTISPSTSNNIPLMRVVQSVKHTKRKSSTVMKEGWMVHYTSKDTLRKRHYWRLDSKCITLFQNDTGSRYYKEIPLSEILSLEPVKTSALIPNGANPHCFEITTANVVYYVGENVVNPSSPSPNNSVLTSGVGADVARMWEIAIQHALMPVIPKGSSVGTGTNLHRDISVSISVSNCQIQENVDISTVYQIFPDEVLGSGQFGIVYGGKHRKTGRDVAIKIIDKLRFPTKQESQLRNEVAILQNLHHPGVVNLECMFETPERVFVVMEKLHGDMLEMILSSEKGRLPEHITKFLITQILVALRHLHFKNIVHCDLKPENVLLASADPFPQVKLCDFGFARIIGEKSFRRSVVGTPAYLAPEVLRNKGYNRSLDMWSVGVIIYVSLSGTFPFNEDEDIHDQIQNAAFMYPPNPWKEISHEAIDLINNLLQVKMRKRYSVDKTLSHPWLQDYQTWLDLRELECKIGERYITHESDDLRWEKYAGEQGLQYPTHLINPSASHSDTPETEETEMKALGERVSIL
Excerpt: as §1, §2, §3, §4

[1] = MARK3, 5 μM ATP, read-out: residual kinase activity
[2] = CHK1, 20 μM ATP, read-out: residual kinase activity
[3] = MSK1, read-out: residual kinase activity
[4] = PKD1, read-out: residual kinase activity
[5] = read-out: residual kinase activity MARK3
[6] = read-out: residual kinase activity CHK1
[7] = read-out: residual kinase activity MSK1
[8] = read-out: residual kinase activity PKD1

O=C(NCCCNc1nc(Nc2cccc(N3CCCC3=O)c2)ncc1C1CC1)c1cccs1 [Example 47, Thiophene-2-carboxylic acid (3-{5-cyclopropyl-2-[3-(2-oxo-pyrrolidin-1-yl)-phenylamino]-pyrimidin-4-ylamino}-propyl)-amide. Hydrochloride salt]
remaining activity at 1 µM (MARK3; [1]): 15% | remaining activity at 10 µM (MARK3; [1]): 4% | remaining activity at 1 µM (CHK1; [2]): 70% | remaining activity at 10 µM (CHK1; [2]): 30% | remaining activity at 1 µM (MSK1; [3]): 61% | remaining activity at 10 µM (MSK1; [3]): 54% | remaining activity at 1 µM (PKD1; [4]): 57% | remaining activity at 10 µM (PKD1; [4]): 52%

O=C(NCCCNc1nc(Nc2cccnc2)ncc1C1CC1)c1cccs1 [Example 50, Thiophene-2-carboxylic acid {3-[5-cyclopropyl-2-(pyridin-3-ylamino)-pyrimidin-4-ylamino]-propyl}-amide]
remaining activity at 1 µM (MARK3; [1]): 13% | remaining activity at 10 µM (MARK3; [1]): 2% | remaining activity at 1 µM (CHK1; [2]): 65% | remaining activity at 10 µM (CHK1; [2]): 21% | remaining activity at 1 µM (MSK1; [3]): 77% | remaining activity at 10 µM (MSK1; [3]): 70% | remaining activity at 1 µM (PKD1; [4]): 60% | remaining activity at 10 µM (PKD1; [4]): 36%

O=C(NCCCNc1nc(Nc2cccc(F)c2)ncc1Br)C1CCC1 [Compound A, cyclobutanecarboxylic acid {3-[5-bromo-2-(3-fluoro-phenylamino)-pyrimidin-4-ylamino]-propyl}-amide, reference compound]
remaining activity at 10 µM (MARK3; [5]): 2% | residual kinase activity MARK3 (MARK3): 3% | remaining activity at 10 µM (CHK1; [6]): 0% | residual kinase activity CHK1 (CHK1): 9% | remaining activity at 10 µM (MSK1; [7]): 24% | residual kinase activity MSK1 (MSK1): 62% | remaining activity at 10 µM (PKD1; [8]): 1% | residual kinase activity PKD1 (PKD1): 7%

O=C(NCCCNc1nc(Nc2cccc(F)c2)ncc1C1CC1)C1CCC1 [Example 23, Cyclobutanecarboxylic acid {3-[5-cyclopropyl-2-(3-fluoro-phenylamino)-pyrimidin-4-ylamino]-propyl}-amide]
remaining activity at 10 µM (MARK3; [5]): 1% | residual kinase activity MARK3 (MARK3): 0% | remaining activity at 1 µM (MARK3; [1]): 0% | remaining activity at 10 µM (MARK3; [1]): 1% | remaining activity at 10 µM (CHK1; [6]): 14% | residual kinase activity CHK1 (CHK1): 51% | remaining activity at 1 µM (CHK1; [2]): 51% | remaining activity at 10 µM (CHK1; [2]): 14% | remaining activity at 10 µM (MSK1; [7]): 34% | residual kinase activity MSK1 (MSK1): 74% | remaining activity at 1 µM (MSK1; [3]): 74% | remaining activity at 10 µM (MSK1; [3]): 34% | remaining activity at 10 µM (PKD1; [8]): 53% | residual kinase activity PKD1 (PKD1): 68% | remaining activity at 1 µM (PKD1; [4]): 68% | remaining activity at 10 µM (PKD1; [4]): 53%
